Test results taken from Sander's compilation of Henry's law constants (doi:10.1021/je960218u).

Test: Henry solubility constant Hcp at 298.15 K (mol/(m3 Pa))
Settings: reference: Shiu and Mackay (1997)

Row | Compound | Henry solubility constant Hcp
1 | CCCCCC(C)=O [2-heptanone] | 0.058
2 | CCCCCCCO [1-heptanol] | 0.18
3 | Clc1ccc(Cl)cc1 [1,4-dichlorobenzene] | 0.0041
4 | Clc1ccc2ccccc2c1 [2-chloronaphthalene] | 0.03
5 | c1ccc2c(c1)ccc1ccccc12 [phenanthrene] | 0.28
6 | Clc1ccccc1 [chlorobenzene] | 0.0032
7 | c1ccc2c(c1)Cc1ccccc1-2 [2,3-benzindene] | 0.1
8 | Clc1cccc(Cl)c1Cl [1,2,3-trichlorobenzene] | 0.0079
9 | Brc1ccccc1 [bromobenzene] | 0.004
10 | Clc1cc(Cl)c(Cl)c(Cl)c1 [1,2,3,5-tetrachlorobenzene] | 0.0063
11 | c1ccc2ccccc2c1 [naphthalene] | 0.022
12 | CC(=O)c1ccccc1 [1-phenylethanone] | 0.93
13 | c1ccc(-c2ccccc2)cc1 [biphenyl] | 0.032
14 | Cc1cccc2c(C)cccc12 [1,5-dimethylnaphthalene] | 0.028
15 | Cc1cccc2ccccc12 [1-methylnaphthalene] | 0.041
16 | CC(C)CO [2-methyl-1-propanol] | 0.37
17 | CCCC(C)=O [2-pentanone] | 0.12
18 | c1ccc2cc3ccccc3cc2c1 [anthracene] | 0.13
19 | c1cc2c3c(cccc3c1)CC2 [acenaphthene] | 0.062
20 | Clc1cccc2ccccc12 [1-chloronaphthalene] | 0.028
